Marks after values point to notes of the source that are not given here.
Experiments:
NOD/Itj mice [1] = test: Salivary flow rate of NOD/Itj mice (animal model of SS); format: in vivo; details: for effect on salivary flow rate of NOD/Itj mice (in words): gastric gavage; for Salivary flow rate (mean value ± SD): NOD/Itj mice, gastric gavage from 8th week, microcapsules 0.4 mmol/kg NO3−, NaNO3 0.4 mmol/kg, Vc 2 mmol/kg
Experimental: Therefore, the NOD/Itj mouse can be used as an animal model of SS. Subsequently, the microcapsules of the present invention were administered by gastric gavage, the saliva flow rate was monitored, and the experimental samples were collected at the 12th week to observe the prophylactic and therapeutic effects of the microcapsules of the present invention on SS.
After proper anaesthesia, the mice were injected I.P. with pilocarpine nitrate in aseptic normal saline at a concentration of 0.4 mg/ml and a dosage of 0.5 mg/100 g b.w. After the injection, the mice were laid on a 20° inclined mouse board on prone position, with the head slightly inclined downward, so that the head was in a slightly lower position. About 5 minutes after the injection, after the first drop of saliva from the mouth of the mouse, after 5 minutes, the time was recorded and the saliva was collected, and the amount of saliva was collected for 20 minutes (the amount of saliva is detected by inserting a small sterile cotton ball with known weight under the tongue of mouse, and weighing cotton ball 20 minutes later).
(§1) Saliva flow rate was measured […].

NOD/Itj mice [2] = test: Lymphocyte infiltration in submandibular gland of NOD/Itj mice (HE staining, Image J); format: in vivo; details: 14th week, gastric gavage from 8th week, microcapsules 0.4 mmol/kg NO3−, NaNO3 0.4 mmol/kg, Vc 2 mmol/kg
Experimental: The salivary flow rate was measured every two weeks from the 8th week after birth, and the saliva was collected. At the same time, the submandibular gland samples were collected and stained with HE for histological observation, and the degree of lymphocyte infiltration was analyzed by Image J.
After the experimental animals were sacrificed, they were placed on supine position, disinfected, and the neck was incised to dissect the submandibular gland completely. The tissues were washed with PBS, cut into 0.2 cmx 0.2 cm, and fixed in 4% paraformaldehyde (pH 7.2) at 4° C. for 24-48 h. After dehydration, wax impregnation and embedding, the tissues were sectioned at a thickness of 4 μm and baked, followed by hematoxylin and eosin (HE) staining. The remaining fresh samples were placed in a refrigerator at −80° C.
as §1

[3] = In vivo test: nitrate content in the blood of mice after single gastric gavage; details: 2 mmol/kg sodium nitrate, once
Experimental: Blood was collected from vena caudalis at 0 h, and 2, 4, 6, 12, and 24 h after gastric gavage, respectively.

[4] = after oral administration; cited from earlier work

Row | Compound | effect on salivary flow rate of NOD/Itj mice (in words) (NOD/Itj mice [1]) | Salivary flow rate (mean value ± SD) (NOD/Itj mice [1]; week 8) [g/10 min] | Salivary flow rate (mean value ± SD) (NOD/Itj mice [1]; week 9) [g/10 min] | Salivary flow rate (mean value ± SD) (NOD/Itj mice [1]; week 10) [g/10 min] | Salivary flow rate (mean value ± SD) (NOD/Itj mice [1]; week 11) [g/10 min] | Salivary flow rate (mean value ± SD) (NOD/Itj mice [1]; week 12) [g/10 min] | Salivary flow rate (mean value ± SD) (NOD/Itj mice [1]; week 13) [g/10 min] | Salivary flow rate (mean value ± SD) (NOD/Itj mice [1]; week 14) [g/10 min] | Infiltration area of the submandibular gland (NOD/Itj mice [2]) | Nitrate content in the blood of the mice after single administration ([3]; 0 h) [µmol/L] | Nitrate content in the blood of the mice after single administration ([3]; 2 h) [µmol/L] | Nitrate content in the blood of the mice after single administration ([3]; 4 h) [µmol/L] | Nitrate content in the blood of the mice after single administration ([3]; 6 h) [µmol/L] | Nitrate content in the blood of the mice after single administration ([3]; 12 h) [µmol/L] | Nitrate content in the blood of the mice after single administration ([3]; 24 h) [µmol/L] | half-life in vivo [4] [h]
1 | O=[N+]([O-])[O-].[Na+] [NaNO3, sodium nitrate] | no obvious influence | 0.078 ± 0.011 | 0.068 ± 0.006 | 0.060 ± 0.004 | 0.057 ± 0.004 | 0.061 ± 0.009 | 0.062 ± 0.007 | 0.059 ± 0.009 | 4.42 ± 0.54^b % | 41.8 | 1052.8 | 572.4 | 297.4 | 45.3 | 32.7 | –
2 | O=C1O[C@H]([C@@H](O)CO)C(O)=C1O [Vc, vitamin C] | no obvious influence | 0.077 ± 0.012 | 0.063 ± 0.008 | 0.049 ± 0.007 | 0.041 ± 0.008 | 0.038 ± 0.006 | 0.035 ± 0.008 | 0.034 ± 0.007 | 5.16 ± 0.58% | – | – | – | – | – | – | 2

Reference: patent publication US20240342135A1, “USE OF NITRATE AND VITAMIN C MICROCAPSULE FOR TREATING SICCA SYNDROME” (CAPITAL MEDICAL UNIVERSITY, priority 2021, published 2024)
